# Data: patent US8354455B2, “Prodrugs containing novel bio-cleavable linkers” (Piramal Enterprises Limited and Apparao Satyam, priority 2004, dated 2013)
# Where two headings read alike, the source gives them in different places. Marks after values point to notes of the source that are not given here.
# Columns and labels:
# [1] = tested on: carrageenan-induced rat paw edema; experiment: Carrageenan-induced rat paw edema; type: in vivo; conditions: 75 mg/kg equivalent dose of aspirin, p.o.
# [2] = In vitro plasma stability; type: in vitro ADME; conditions: rat plasma, 37° C., 30 minutes incubation, HPLC
# Description: The compounds were extracted back into acetonitrile with rigorous vortex.
# [3] = tested on: rats; conditions: rat, in vivo, po, 100 mg/kg
# [4] = both, Sprague-Dawley, rat, in vivo, po, 35 mg/kg
# [5] = tested on: MES-induced seizures; experiment: animal or person; type: in vivo, rats; conditions: for ED50: Rattus norvegicus, po, MES model, at time of peak effect
# [6] = tested on: convulsant metrazol; experiment: scMET, rats p.o. (Test 3); type: in vivo; conditions: Test 3, rats p.o.
# Description: Subcutaneous Metrazol Seizure Threshold Test (scMET): Subcutaneous injection of the convulsant metrazol produces clonic seizures in laboratory animals. […] Animals were pretreated with various doses of the test compound given by i.p. injection. At the previously determined Time to Peak Effect (TPE) of the test compound, the dose of metrazol which will produce convulsions in 97% of animals (CD97: 85 mg/kg in mice) was injected into a loose fold of skin in the midline of the neck. The animals were placed in isolation cages to minimize stress and observed for the next 30 minutes for the presence or absence of a seizure. An episode of clonic spasms, approximately […], of the fore and/or hind limbs, jaws, or vibrissae is taken as the end point.
# Rats received test compounds orally.
# [7] = tested on: convulsant metrazol; experiment: Subcutaneous Metrazol Seizure Threshold Test (scMET), Test 1, mice i.p.; type: in vivo; conditions: Mus musculus, ip, symbol = dose with activity
# [8] = tested on: rats; experiment: Neurotoxicity, rats p.o. (Test 2 and Test 3)
# Description: Acute Toxicity—Minimal Motor Impairment (MMI): To assess a compound's undesirable side effects (toxicity), animals were monitored for overt signs of impaired neurological or muscular function.
# Groups of at least 8 rats received various doses of the candidate compound until at least two points were established between the limits of 100 percent protection or toxicity and zero percent protection or minimal toxicity. The 95 percent confidence limits, slopes of the regression lines and standard errors of the slopes were calculated for each quantitative determination. Rats received test compounds orally.
# This secondary evaluation determines the time to peak effect (TPE), neurotoxicity, median effective dose (ED50) and biological response.
# [9] = tested on: mice; conditions: for toxicity (in words): Test 1, mice i.p.; for Rotorod Toxicity 0.5 h / Rotorod Toxicity 4.0 h: mice, i.p., symbol = dose with toxicity
# [10] = tested on: MES-induced seizures; experiment: Maximal Electroshock Test (MES), Test 1, mice i.p.; type: in vivo; conditions: for activity in MES model (in words): Test 1, mice i.p.
# [11] = Test 2, rats p.o., 30 mg/kg, 0.50 h
# [12] = Test 2, rats p.o., 30 mg/kg, 1.00 h
# [13] = Test 2, rats p.o., 30 mg/kg, 2.00 h
# [14] = Test 2, rats p.o., 30 mg/kg, 4.00 h
# [15] = Test 3 time to peak effect, rats p.o., 30 mg/kg, 0.5 h
# [16] = Test 3 time to peak effect, rats p.o., 30 mg/kg, 1.0 h
# [17] = Test 3 time to peak effect, rats p.o., 30 mg/kg, 2.0 h
# [18] = Test 3 time to peak effect, rats p.o., 30 mg/kg, 4.0 h
# [19] = 0.5 h, read-out: ScMET 0.5 h, mice, i.p., 0.5 h
# [20] = 4 h, read-out: ScMET 4.0 h, mice, i.p., 4.0 h
compound,measurement,setting,value
"CC(=O)Oc1ccccc1C(=O)O [Aspirin, reference compound]",anti-inflammatory activity (in words),[1],anti-inflammatory activity from 1 hr through 6 hr with peak maximal activity at 4 hr
same,Rat paw edema (% inhibition) 1 hour,"[1]; Mean ± SEM, n = 6",31.0 ± 7.2%
same,Rat paw edema (% inhibition) 2 hour,"[1]; Mean ± SEM, n = 6",52.5 ± 3.4%
same,Rat paw edema (% inhibition) 4 hour,"[1]; Mean ± SEM, n = 6",60.7 ± 6.9%
same,Rat paw edema (% inhibition) 6 hour,"[1]; Mean ± SEM, n = 6",42.8 ± 6.9%
same,release of parent drug / conversion to salicylate (in words),[2],completely metabolized to salicylate
same,ulcers (in words),[3],severe haemorrhagic lesions
same,salicylate release / absorption profile (in words),[4],highest during 0.5-6.0 hrs
Nc1nc(NC(=O)OCCSSCCO)nnc1-c1cccc(Cl)c1Cl [I-A1-PD4],ED50,[5]; rats p.o.,6.55 mg/kg
same,MES (number of animal protected/number of animal tested),[5]; [11],0/4
same,MES (number of animal protected/number of animal tested),[5]; [12],1/4
same,MES (number of animal protected/number of animal tested),[5]; [13],3/4
same,MES (number of animal protected/number of animal tested),[5]; [14],4/4
same,MES (number of animal protected/number of animal tested),"[5]; Test 3 ED50 quantification, rats p.o., 4 h, 1.9 mg/kg",0/8
same,MES (number of animal protected/number of animal tested),"[5]; Test 3 ED50 quantification, rats p.o., 4 h, 3.8 mg/kg",4/8
same,MES (number of animal protected/number of animal tested),"[5]; Test 3 ED50 quantification, rats p.o., 4 h, 7.5 mg/kg",4/8
same,MES (number of animal protected/number of animal tested),"[5]; Test 3 ED50 quantification, rats p.o., 4 h, 15 mg/kg",7/8
same,MES (number of animal protected/number of animal tested),"[5]; Test 3 ED50 quantification, rats p.o., 4 h, 30 mg/kg",7/8
same,MES (number of animal protected/number of animal tested),"[5]; Test 3 time to peak effect, rats p.o., 10 mg/kg, 4.0 h",4/4
same,MES (number of animal protected/number of animal tested),"[5]; Test 3 time to peak effect, rats p.o., 10 mg/kg, 6.0 h",3/4
same,MES (number of animal protected/number of animal tested),"[5]; Test 3 time to peak effect, rats p.o., 10 mg/kg, 8.0 h",2/4
same,MES (number of animal protected/number of animal tested),"[5]; Test 3 time to peak effect, rats p.o., 10 mg/kg, 24 h",0/4
same,MES (number of animal protected/number of animal tested),"[5]; Test 3 time to peak effect, rats p.o., 30 mg/kg, 0.25 h",2/4
same,MES (number of animal protected/number of animal tested),[5]; [15],2/4
same,MES (number of animal protected/number of animal tested),[5]; [16],2/4
same,MES (number of animal protected/number of animal tested),[5]; [17],2/4
same,MES (number of animal protected/number of animal tested),[5]; [18],4/4
same,ScMET (50 mg/kg) (number of animal protected/number of animal tested),[6]; 0.25 h,1/4^f
same,ScMET (50 mg/kg) (number of animal protected/number of animal tested),[6]; 0.5 h,0/4
same,ScMET (50 mg/kg) (number of animal protected/number of animal tested),[6]; 1.0 h,2/4
same,ScMET (50 mg/kg) (number of animal protected/number of animal tested),[6]; 2.0 h,1/4^g
same,ScMET (50 mg/kg) (number of animal protected/number of animal tested),[6]; 4.0 h,0/4
same,minimal effective dose,[7]; [19],> 300 mg/kg
same,minimal effective dose,[7]; [20],> 300 mg/kg
same,Toxicity (number of animals exhibiting toxicity/number of animals tested),[8]; [11],0/4
same,Toxicity (number of animals exhibiting toxicity/number of animals tested),[8]; [12],0/4
same,Toxicity (number of animals exhibiting toxicity/number of animals tested),[8]; [13],0/4
same,Toxicity (number of animals exhibiting toxicity/number of animals tested),[8]; [14],0/4
same,Toxicity (number of animals exhibiting toxicity/number of animals tested),"[8]; Test 3, rats p.o., 100 mg/kg, 0.25 h",0/4 (100)
same,Toxicity (number of animals exhibiting toxicity/number of animals tested),"[8]; Test 3, rats p.o., 100 mg/kg, 0.5 h",0/4 (100)
same,Toxicity (number of animals exhibiting toxicity/number of animals tested),"[8]; Test 3, rats p.o., 100 mg/kg, 1.0 h",0/4 (100)
same,Toxicity (number of animals exhibiting toxicity/number of animals tested),"[8]; Test 3, rats p.o., 100 mg/kg, 2.0 h",0/4 (100)
same,toxicity (in words),[9],no or mild toxicity
same,Rotorod Toxicity 0.5 h,[9],— (— = no activity or no toxicity at 300 mg/kg)
same,Rotorod Toxicity 4.0 h,[9],— (— = no activity or no toxicity at 300 mg/kg)
same,activity in MES model (in words),[10],active in MES
same,MES (number of animal protected/number of animal tested),"[10]; mice, i.p., 0.5 h, 100 mg/kg (++)",(1/7)
same,MES (number of animal protected/number of animal tested),"[10]; mice, i.p., 0.5 h, 300 mg/kg (+)",(2/5)
same,MES (number of animal protected/number of animal tested),"[10]; mice, i.p., 4.0 h, 30 mg/kg (+++)",(1/1)
same,MES (number of animal protected/number of animal tested),"[10]; mice, i.p., 4.0 h, 100 mg/kg (++)",(3/3)
same,MES (number of animal protected/number of animal tested),"[10]; mice, i.p., 4.0 h, 300 mg/kg (+)",(1/1)
CCOC(=O)CC1(CNC(=O)OCCSSCCOC(=O)Nc2nnc(-c3cccc(Cl)c3Cl)c(N)n2)CCCCC1 [I-AA-MPD12],ED50,[5]; rats p.o.,17.1 mg/kg
same,MES (number of animal protected/number of animal tested),[5]; [12],0/4
same,MES (number of animal protected/number of animal tested),"[5]; Test 3 ED50 quantification, rats p.o., 6 h, 60 mg/kg",7/8
same,MES (number of animal protected/number of animal tested),"[5]; Test 3 time to peak effect, rats p.o., 15 mg/kg, 8.0 h",1/4
same,MES (number of animal protected/number of animal tested),[5]; [15],0/4
same,MES (number of animal protected/number of animal tested),[5]; [16],0/4
same,MES (number of animal protected/number of animal tested),[5]; [17],1/4
same,MES (number of animal protected/number of animal tested),[5]; [18],3/4
same,MES (number of animal protected/number of animal tested),"[5]; Test 3 time to peak effect, rats p.o., 30 mg/kg, 8.0 h",4/4
same,MES (number of animal protected/number of animal tested),"[5]; Test 3 time to peak effect, rats p.o., 30 mg/kg, 24 h",2/4
same,ScMET (50 mg/kg) (number of animal protected/number of animal tested),[6]; 1.0 h,1/4
same,ScMET (50 mg/kg) (number of animal protected/number of animal tested),[6]; 2.0 h,0/4
same,ScMET (50 mg/kg) (number of animal protected/number of animal tested),[6]; 4.0 h,0/4
same,ScMET (50 mg/kg) (number of animal protected/number of animal tested),[6]; 6.0 h,1/4
same,ScMET (50 mg/kg) (number of animal protected/number of animal tested),[6]; 8.0 h,2/4
same,ScMET (50 mg/kg) (number of animal protected/number of animal tested),[6]; 24 h,0/4
same,minimal effective dose,[7]; [19],> 300 mg/kg
same,minimal effective dose,[7]; [20],> 300 mg/kg
same,Toxicity (number of animals exhibiting toxicity/number of animals tested),[8]; [12],0/4
same,Toxicity (number of animals exhibiting toxicity/number of animals tested),[8]; [13],0/4
same,Toxicity (number of animals exhibiting toxicity/number of animals tested),[8]; [14],0/4
same,Toxicity (number of animals exhibiting toxicity/number of animals tested),"[8]; Test 3, rats p.o., 50 mg/kg, 1.0 h",0/4 (50)
same,Toxicity (number of animals exhibiting toxicity/number of animals tested),"[8]; Test 3, rats p.o., 50 mg/kg, 2.0 h",0/4 (50)
same,Toxicity (number of animals exhibiting toxicity/number of animals tested),"[8]; Test 3, rats p.o., 50 mg/kg, 4.0 h",0/4 (50)
same,Toxicity (number of animals exhibiting toxicity/number of animals tested),"[8]; Test 3, rats p.o., 50 mg/kg, 6.0 h",0/4 (50)
same,Toxicity (number of animals exhibiting toxicity/number of animals tested),"[8]; Test 3, rats p.o., 50 mg/kg, 8.0 h",0/4 (50)
same,Toxicity (number of animals exhibiting toxicity/number of animals tested),"[8]; Test 3, rats p.o., 50 mg/kg, 24 h",0/4 (50)
same,toxicity (in words),[9],no or mild toxicity
same,Rotorod Toxicity 0.5 h,[9],— (— = no activity or no toxicity at 300 mg/kg)
same,Rotorod Toxicity 4.0 h,[9],— (— = no activity or no toxicity at 300 mg/kg)
same,minimal effective dose,"[10]; Mus musculus, ip, 0.5 h, read-out: MES 0.5 h, mice, i.p., 0.5 h, symbol = dose with activity",> 300 mg/kg
same,activity in MES model (in words),[10],active in MES
same,"MES, at 6 hours after dosing","[10]; mice, i.p., 6 h (footnotes g, m; printed in 4.0 h column)",++ (++ = activity or toxicity at 100 mg/kg)
